Reference: patent US20230203098A1, “HUMAN TRANSFERRIN RECEPTOR BINDING PEPTIDE” (priority 2020, published 2023)
Like-named read-outs stand apart in the source and are kept apart here. Blank lines part the entries; values can stand above or below the molecule they belong to. Where a SMILES comes first, the peptide text is derived from it. Bridges are numbered along the chain shown (N, C = ends). [ ]: non-standard residue; d: D form. The star is where a group is joined. NMePhe(3-Cl) = CN[C@@H](Cc1cccc(Cl)c1)C(=O)O; NMeW = CN[C@@H](Cc1c[nH]c2ccccc12)C(=O)O; NMeY = CN[C@@H](Cc1ccc(O)cc1)C(=O)O; PEG4 = NCCOCCOCCOCCOCCC(=O)O; X1 = CN[C@H](CCCCN*)C(=O)O; Dab = NCC[C@H](N)C(=O)O

Target: transferrin receptor (hTfR) (Homo sapiens, UniProt P02786)
Sequence (P02786 whole entry): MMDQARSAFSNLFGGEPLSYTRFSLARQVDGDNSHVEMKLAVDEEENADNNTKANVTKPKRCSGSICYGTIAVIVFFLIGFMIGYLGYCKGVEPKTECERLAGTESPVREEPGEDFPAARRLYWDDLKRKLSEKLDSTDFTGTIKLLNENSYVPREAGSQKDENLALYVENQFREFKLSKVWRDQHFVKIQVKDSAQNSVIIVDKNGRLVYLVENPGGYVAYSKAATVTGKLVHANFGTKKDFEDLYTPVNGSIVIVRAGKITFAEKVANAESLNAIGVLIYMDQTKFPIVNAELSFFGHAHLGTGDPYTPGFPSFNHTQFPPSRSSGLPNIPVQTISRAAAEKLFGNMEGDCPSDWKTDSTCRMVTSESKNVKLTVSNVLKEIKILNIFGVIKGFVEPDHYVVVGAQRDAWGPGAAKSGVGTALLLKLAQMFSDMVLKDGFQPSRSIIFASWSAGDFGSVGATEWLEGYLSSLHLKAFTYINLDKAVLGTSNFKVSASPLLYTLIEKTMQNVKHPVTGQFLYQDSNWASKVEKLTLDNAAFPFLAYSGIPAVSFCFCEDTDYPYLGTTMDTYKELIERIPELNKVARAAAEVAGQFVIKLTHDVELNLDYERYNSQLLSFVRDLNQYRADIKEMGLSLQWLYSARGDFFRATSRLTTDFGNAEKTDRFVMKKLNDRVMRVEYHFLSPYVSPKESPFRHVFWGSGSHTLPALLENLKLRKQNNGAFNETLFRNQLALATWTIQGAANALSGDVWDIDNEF
Assay: Intermolecular interaction evaluation test between transferrin receptor (hTfR) and peptide by surface plasmon resonance (SPR)
Type: binding
Summary of the method: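 hTfR captured on Ni-NTA chip then amine-coupled; peptides run single-cycle kinetics at 5–100 nM in 10 mM HEPES pH 8.0, 150 mM NaCl, 0.05% Tween 20, 0.1% BSA, 1.0% DMSO. KD from least-squares curve fitting of sensorgrams.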

[1] = surface plasmon resonance, hTfR, read-out: KD value for hTfR by SPR (class symbol)
[2] = binding to hTfR by SPR, Table 2 peptides, read-out: KD value (SPR) class
[3] = surface plasmon resonance, peptide vs hTfR, read-out: KD value, hTfR binding by SPR (class symbol)

SMILES: CC[C@H](C)[C@@H]1NC(=O)[C@H](Cc2ccc(OC)cc2)NC(=O)[C@H](Cc2ccc(O)cc2)NC(=O)[C@H](CC(N)=O)NC(=O)[C@H](Cc2c[nH]c3ccccc23)N(C)C(=O)[C@H](C(C)C)NC(=O)[C@H](Cc2cccc(Cl)c2)N(C)C(=O)[C@H](C(C)C)NC(=O)[C@H](C)NC(=O)CSC[C@@H](C(N)=O)NC(=O)[C@H](Cc2ccc(O)cc2)N(C)C(=O)[C@H](Cc2ccccc2)NC(=O)[C@H](CCCNC(=N)N)NC(=O)C(C)(CCCCN)NC(=O)[C@H]([C@@H](C)CC)NC1=O (stereo partly drawn) [compound 379]
- Kd [1]: 1 to 100 nM

SMILES: CC[C@H](C)[C@@H]1NC(=O)[C@H](Cc2ccc(OC)cc2)NC(=O)[C@H](Cc2ccc(O)cc2)NC(=O)[C@H](CC(N)=O)NC(=O)[C@H](Cc2c[nH]c3ccccc23)N(C)C(=O)[C@H](C(C)C)NC(=O)[C@H](Cc2cccc(Cl)c2)N(C)C(=O)[C@H](C(C)C)NC(=O)[C@H](C)NC(=O)CSC[C@@H](C(=O)NCC(=O)N[C@H](CCC(=O)O)C(=O)NCC(=O)N[C@H](CCCCN)C(=O)N[C@@H](CO)C(=O)N[C@@H](CO)C(=O)N[C@@H](CS)C(N)=O)NC(=O)[C@H](Cc2ccc(O)cc2)N(C)C(=O)[C@H](Cc2ccccc2)NC(=O)[C@@H](CCCNC(=N)N)NC(=O)[C@H](CCCNC(=N)N)NC(=O)[C@H]([C@@H](C)CC)NC1=O [compound 404] ({CH2CO}-AV[NMePhe(3-Cl)]V[NMeW]NYY(Me)IIR[dR]F[NMeY]CG[dE]G[dK]SSC-NH2; thioether N-15)
- Kd [1]: 1 to 100 nM

SMILES: CC[C@H](C)[C@@H]1NC(=O)[C@H](Cc2ccc(OC)cc2)NC(=O)[C@H](Cc2ccc(O)cc2)NC(=O)[C@H](CC(N)=O)NC(=O)[C@H](Cc2c[nH]c3ccccc23)N(C)C(=O)[C@H](C(C)C)NC(=O)[C@H](Cc2cccc(Cl)c2)N(C)C(=O)[C@H](C(C)C)NC(=O)[C@H](C)NC(=O)CSC[C@@H](C(=O)NCCOCCOCCOCCOCCC(N)=O)NC(=O)[C@H](Cc2ccc(O)cc2)NC(=O)[C@H](Cc2ccccc2)NC(=O)[C@@H](CCCNC(=N)N)NC(=O)C(C)(C)NC(=O)[C@H]([C@@H](C)CC)NC1=O [compound 352]
- Kd [1]: 1 to 100 nM

SMILES: CC[C@H](C)[C@@H]1NC(=O)[C@H](Cc2ccc(O)cc2)NC(=O)[C@H](Cc2ccc(O)cc2)NC(=O)[C@H](CC(N)=O)NC(=O)[C@H](Cc2c[nH]c3ccccc23)NC(=O)[C@H](C(C)C)NC(=O)[C@H](Cc2ccccc2)NC(=O)[C@H](C(C)C)NC(=O)[C@H](C)NC(=O)CSC[C@@H](C(=O)NCCOCCOCCOCCOCCC(=O)N[C@@H](CNC(=O)c2ccc(-c3c4ccc(=O)cc-4oc4cc(O)ccc34)c(C(=O)O)c2)C(N)=O)NC(=O)[C@H](Cc2ccc(O)cc2)N(C)C(=O)[C@H](Cc2ccc(O)cc2)NC(=O)[C@H](CCCNC(=N)N)NC(=O)[C@H](CCCNC(=N)N)NC(=O)[C@H]([C@@H](C)CC)NC1=O [compound 159]
- Kd (SPR, linker and payload (FITC, VivoTag) conjugates, read-out: KD): 1 to 100 nM

SMILES: CC[C@H](C)[C@@H]1NC(=O)[C@H](Cc2ccc(OC)cc2)NC(=O)[C@H](Cc2ccc(O)cc2)NC(=O)[C@H](CC(N)=O)NC(=O)[C@H](Cc2c[nH]c3ccccc23)N(C)C(=O)[C@H](C(C)C)NC(=O)[C@H](Cc2cccc(Cl)c2)N(C)C(=O)[C@H](C(C)C)NC(=O)[C@H](C)NC(=O)CSC[C@@H](C(=O)NCCOCCOCCOCCOCCC(N)=O)NC(=O)[C@H](Cc2ccc(O)cc2)N(C)C(=O)[C@H](Cc2ccccc2)NC(=O)[C@@H](CCCNC(=N)N)NC(=O)[C@H](CCN)NC(=O)[C@H]([C@@H](C)CC)NC1=O [compound 366] ({CH2CO}-AV[NMePhe(3-Cl)]V[NMeW]NYY(Me)II[Dab][dR]F[NMeY]C[PEG4]-NH2; thioether N-15)
- Kd [1]: 1 to 100 nM

SMILES: CC[C@H](C)[C@@H]1NC(=O)[C@H](Cc2ccc(OC)cc2)NC(=O)[C@H](Cc2ccc(O)cc2)NC(=O)[C@H](CC(N)=O)NC(=O)[C@H](Cc2cn(CC(=O)O)c3ccccc23)NC(=O)[C@H](C(C)C)NC(=O)[C@H](Cc2cccc(Cl)c2)N(C)C(=O)[C@H](C(C)C)NC(=O)[C@H](C)NC(=O)CSC[C@@H](C(N)=O)NC(=O)[C@H](Cc2ccc(O)cc2)N(C)C(=O)[C@H](Cc2ccccc2)NC(=O)[C@@H](CCCNC(=N)N)NC(=O)C(C)(C)NC(=O)[C@H]([C@@H](C)CC)NC1=O [compound 303]
- Kd [3]: 1 to 100 nM

SMILES: CC[C@H](C)[C@@H]1NC(=O)[C@H](Cc2ccc(O)cc2)NC(=O)[C@H](Cc2ccc(O)cc2)NC(=O)[C@H](CC(N)=O)NC(=O)[C@H](Cc2c[nH]c3ccccc23)N(C)C(=O)[C@H](C(C)C)NC(=O)[C@H](Cc2cccc(Cl)c2)N(C)C(=O)[C@H](C(C)C)NC(=O)[C@H](C)NC(=O)CSC[C@@H](C(=O)NCCOCCOCCOCCOCCC(N)=O)NC(=O)[C@H](Cc2ccc(O)cc2)N(C)C(=O)[C@H](Cc2ccccc2)NC(=O)[C@@H](CCCNC(=N)N)NC(=O)C(C)(C)NC(=O)[C@H]([C@@H](C)CC)NC1=O [compound 322]
- Kd [3]: 1 to 100 nM

SMILES: CC[C@H](C)[C@@H]1NC(=O)[C@H](Cc2ccc(OC)cc2)NC(=O)[C@H](Cc2ccc(O)cc2)NC(=O)[C@H](CC(N)=O)NC(=O)[C@H](Cc2c[nH]c3ccccc23)NC(=O)[C@H](C(C)C)NC(=O)[C@H](Cc2cccc(Cl)c2)N(C)C(=O)[C@H](C(C)C)NC(=O)[C@H](C)NC(=O)CSC[C@@H](C(=O)NCCOCCOCCOCCOCCC(N)=O)NC(=O)[C@H](Cc2ccc(O)cc2)N(C)C(=O)[C@H](Cc2ccccc2)NC(=O)[C@H](CCCNC(=N)N)NC(=O)[C@H](CCCCN)NC(=O)[C@H]([C@@H](C)CC)NC1=O [compound 503]
- Kd (SPR, hTfR, class symbols A-D, read-out: KD (column without head, continuation of the table series)): < 1 nM

SMILES: CC[C@H](C)[C@@H]1NC(=O)[C@H](Cc2ccc(OC)cc2)NC(=O)[C@H](Cc2ccc(O)cc2)NC(=O)[C@H](CC(N)=O)NC(=O)[C@H](Cc2c[nH]c3ccccc23)N(C)C(=O)[C@H](C(C)C)NC(=O)[C@H](Cc2cccc(Cl)c2)N(C)C(=O)[C@H](C(C)C)NC(=O)[C@H](C)N(C)C(=O)CSC[C@@H](C(N)=O)NC(=O)[C@H](Cc2ccc(O)cc2)N(C)C(=O)[C@H](Cc2ccccc2)NC(=O)[C@H](CCCNC(=N)N)NC(=O)[C@H](CCCNC(=N)N)NC(=O)[C@H]([C@@H](C)CC)NC1=O [compound 214]
- Kd (SPR, peptides, linker-added peptides and FITC conjugates, Patent ID 203-230, read-out: KD): 1 to 100 nM

SMILES: CC[C@H](C)[C@@H]1NC(=O)[C@H](Cc2ccc(O)cc2)NC(=O)[C@H](Cc2ccc(O)cc2)NC(=O)[C@H](CC(N)=O)NC(=O)[C@H](Cc2c[nH]c3ccccc23)N(C)C(=O)[C@H](C(C)C)NC(=O)[C@H](Cc2ccccc2)N(C)C(=O)[C@H](C(C)C)NC(=O)[C@H](C)NC(=O)CSC[C@@H](C(=O)NCCOCCOCCOCCOCCOCCOCCOCCOCCC(=O)N[C@@H](CCCCNC(=O)C2CCC(CN3C(=O)C=CC3=O)CC2)C(N)=O)NC(=O)[C@H](Cc2ccc(O)cc2)N(C)C(=O)[C@H](Cc2ccc(O)cc2)NC(=O)[C@H](CCCNC(=N)N)NC(=O)[C@H](CCCNC(=N)N)NC(=O)[C@H]([C@@H](C)CC)NC1=O (stereo partly drawn) [compound 185]
- Kd (hTfR binding by SPR, hTfR No. 894 variant peptides, linker-added peptides and payload conjugates (Table 2), read-out: KD value obtained from the SPR measurement): 1 to 100 nM

Now from value to molecule:

- Kd [1]: 1 to 100 nM
SMILES: CC[C@H](C)[C@@H]1NC(=O)[C@H](Cc2ccc(O)cc2)NC(=O)[C@H](Cc2ccc(O)cc2)NC(=O)[C@H](CC(N)=O)NC(=O)[C@H](Cc2c[nH]c3ccccc23)NC(=O)[C@H](C(C)C)NC(=O)[C@H](Cc2ccccc2)NC(=O)[C@H](C(C)C)NC(=O)[C@H](C)NC(=O)CCC[C@@H](C(N)=O)NC(=O)[C@H](Cc2ccc(O)cc2)N(C)C(=O)[C@H](Cc2ccc(O)cc2)NC(=O)[C@H](CCCNC(=N)N)NC(=O)[C@H](CCCNC(=N)N)NC(=O)[C@H]([C@@H](C)CC)NC1=O [compound 408]

- Kd [2]: 1 to 100 nM
SMILES: CC[C@H](C)[C@@H]1NC(=O)[C@H](Cc2ccc(O)cc2)NC(=O)[C@H](Cc2ccc(O)cc2)NC(=O)[C@H](CC(N)=O)NC(=O)[C@H](Cc2c[nH]c3ccc(Cl)cc23)NC(=O)[C@H](C(C)C)NC(=O)[C@H](Cc2ccccc2)N(C)C(=O)[C@H](C(C)C)NC(=O)[C@H](C)NC(=O)CSC[C@@H](C(N)=O)NC(=O)[C@H](Cc2ccc(O)cc2)N(C)C(=O)[C@H](Cc2ccc(O)cc2)NC(=O)[C@H](CCCNC(=N)N)NC(=O)[C@H](CCCNC(=N)N)NC(=O)[C@H]([C@@H](C)CC)NC1=O [compound 268]

- Kd [2]: 1 to 100 nM
SMILES: CC[C@H](C)[C@@H]1NC(=O)[C@H](Cc2ccc(O)cc2)NC(=O)[C@H](Cc2ccc(O)cc2)NC(=O)[C@H](CC(N)=O)NC(=O)[C@H](Cc2c[nH]c3ccccc23)NC(=O)[C@H](C(C)C)NC(=O)[C@H](Cc2ccccc2)NC(=O)[C@H](C(C)C)NC(=O)[C@H](C)NC(=O)CSC[C@@H](C(N)=O)NC(=O)[C@H](Cc2ccc(O)cc2)N(C)C(=O)[C@H](Cc2ccc(O)cc2)NC(=O)[C@H](CCCNC(=N)N)NC(=O)[C@H](CCCNC(=N)N)NC(=O)[C@H](CCCNC(=N)N)NC1=O [compound 248]

- Kd [3]: 1 to 100 nM
SMILES: CC[C@H](C)[C@@H]1NC(=O)[C@H](Cc2ccc(OC)cc2)NC(=O)[C@H](Cc2ccc(O)cc2)NC(=O)[C@H](CC(N)=O)NC(=O)[C@H](Cc2c[nH]c3ccccc23)N(C)C(=O)[C@H](C(C)C)NC(=O)[C@H](Cc2cccc(Cl)c2)N(C)C(=O)[C@H](C(C)C)NC(=O)[C@H](C)NC(=O)CSC[C@@H](C(N)=O)NC(=O)[C@H](Cc2ccc(O)cc2)N(C)C(=O)[C@H](Cc2ccccc2)NC(=O)[C@@H](CCCNC(=N)N)NC(=O)[C@H](CCCNC(=N)N)NC(=O)[C@H](CCC(=O)NCCCC[C@@H](NC)C(=O)O)NC1=O [compound 346] ({CH2CO}-AV[NMePhe(3-Cl)]V[NMeW]NYY(Me)IE(X1)R[dR]F[NMeY]C-NH2; thioether N-15)

- Kd [1]: 1 to 100 nM
SMILES: CC[C@H](C)[C@@H]1NC(=O)[C@H](Cc2ccc(OC)cc2)NC(=O)[C@H](Cc2ccc(O)cc2)NC(=O)[C@H](CC(N)=O)NC(=O)[C@H](Cc2c[nH]c3ccccc23)N(C)C(=O)[C@H](C(C)C)NC(=O)[C@H](Cc2cccc(Cl)c2)N(C)C(=O)[C@H](C(C)C)NC(=O)[C@H](C)NC(=O)CSC[C@@H](C(N)=O)NC(=O)[C@H](Cc2ccc(O)cc2)N(C)C(=O)[C@H](Cc2ccccc2)NC(=O)[C@H](CCCNC(=N)N)NC(=O)[C@H](CCCNC(=N)N)N(C)C(=O)[C@H]([C@@H](C)CC)NC1=O [compound 381]
